The test system of data set [1] is type II estrogen receptors. Description: Binding to type II estrogen receptors, displacement of 3H-estradiol in tumor cells. The note with it: read-out: IC50, concentration causing 50% displacement of the estradiol labelled by its own receptor. On the procedure:
The binding to type II estrogen receptors was evaluated in ovarian tumor cells and tumor cells of other target organs. The cells were grown in a single layer according to the known techniques reported in the literature. To make the test reproducibility, the cells were trypsin treated, every week and placed on plates at a density of 8×10^4 cells/cm^2 and incubated at 37° C. in air containing 5% CO2.
(§1) The various compounds under test, dissolved in ethyl alcohol, were added at serial dilutions and the treated cells and control cells were incubated with ^3H-estradiol or in the presence of diethylstilbestrol according to the methods described by literature. The antiproliferation activity were verified in the same way by adding the compounds, dissolved in DMSO, to the medium and performing a cell count after 72 hours.
(In a radioligand displacement assay an active substance lowers the binding of a labelled ligand.)

The test system of a further data set is MCF7 ADRr. Description: Antiproliferation activity in vitro, cell count after 72 hours, adriamycin-resistant breast tumoral line. It is filed as cell-based. The note with it: MCF7 ADRr adriamycin-resistant human breast tumoral line, read-out: IC50 (MCF7 ADRr), concentration causing 50% inhibition of the cell proliferation. The procedure:
as §1

For the next data set, the system named is MDA-MB231. The data set can be described thus: Antiproliferation activity in vitro, cell count after 72 hours, sensitive breast tumoral line. It is filed as cell-based. The note with it: MDA-MB-231, MDA-MB231 sensitive human breast tumoral line, read-out: IC50 (MDA-MB231), concentration causing 50% inhibition of the cell proliferation. On the procedure:
as §1

Take `C=C(C)COc1ccc(C(=O)C=Cc2c[nH]c3ccccc23)c(O)c1` [Compound VI, 1-[2-Hydroxy-4-(2-methylallyloxy)-phenyl]-3-(indole-3-yl)-propen-1-one]: the IC50 in data set [1] was determined as 3.4 µM; in the data set with MCF7 ADRr, 8.8 µM; in the data set with MDA-MB231 it was 9.6 µM.

Usually melting point stands for the temperature of the solid-liquid transition. `CC(C)=CCOc1ccc(C(=O)C=Cc2ccc(F)cc2)c(O)c1` [Compound XIX, 1-(2-Hydroxy-4-(3-methylbut-2-enyloxy)-phenyl)-3-(4-fluorophenyl)-propen-1-one] gave a melting point of 96 to 97 °C.

As for `CC(=O)Nc1ccc(C=CC(=O)c2ccc(OCC=C(C)C)cc2O)cc1` [Compound III, 1-[2-hydroxy-4-(3-methylbut-2-enyloxy)-phenyl]-3-(4-acetamidophenyl)-propen-1-one], the IC50 was 4.2 µM in data set [1], 7 µM in the data set on MCF7 ADRr and 8.2 µM in the data set on MDA-MB231.

With `C#CCOc1ccc(C(=O)C=Cc2cccs2)c(O)c1` [Compound XIII, 1-(2-Hydroxy-4-(prop-2-ynyloxy)-phenyl)-3-(2-thienyl)-propen-1-one], the results for the IC50 (in data set [1]; with MCF7 ADRr; in the data set with MDA-MB231) were 4.3 µM, 5.1 µM and 4.9 µM, respectively.

With `CC(C)=CCOc1ccc(C(=O)C=Cc2cccc([N+](=O)[O-])c2)c(O)c1` [Compound XX, 1-(2-Hydroxy-4-(3-methylbut-2-enyloxy)-phenyl)-3-(3-nitrophenyl)-propen-1-one], the melting point lay in the range of 125 to 126 °C.

In the case of `C#CCOc1ccc(C(=O)C=Cc2ccc(C#N)cc2)c(O)c1` [Compound XXIV, 1-(2-Hydroxy-4-(prop-2-ynyloxy)-phenyl)-3-(4-cyanophenyl)-propen-1-one], the melting point lay within 188 to 190 °C.

With `C=C(C)COc1ccc(C(=O)C=Cc2cccs2)c(O)c1` [Compound XII, 1-(2-Hydroxy-4-(2-methylallyloxy)-phenyl)-3-(2-thienyl)-propen-1-one], the IC50 is 2.7 µM in data set [1], 3.9 µM with MCF7 ADRr and 5.3 µM in the data set with MDA-MB231.

In the case of `C=C(C)COc1ccc(C(=O)C=Cc2ccccc2)c(O)c1` [Compound XV, 1-(2-Hydroxy-4-(2-methylallyloxy)-phenyl)-3-(phenyl)-propen-1-one], the IC50 in data set [1] stood at 2.9 µM; with MCF7 ADRr it was 7.1 µM; with MDA-MB231, 10.7 µM.

On to `CSc1ccc(C=CC(=O)c2ccc(OCC=C(C)C)cc2O)cc1` [Compound XXVI, 1-(2-Hydroxy-4-(3-methylbut-2-enyloxy)-phenyl)-3-(4-methylthiophenyl)-propen-1-one], for which the melting point is 130 to 131 °C.

On to `CC(C)=CCOc1ccc(C(=O)C=Cc2ccco2)c(O)c1` [Compound XIV, 1-(2-Hydroxy-4-(3-methylbut-2-enyloxy)-phenyl)-3-(2-furyl)-propen-1-one], for which the IC50 was 3.2 µM in data set [1], 6.3 µM in the data set on MCF7 ADRr and 5.7 µM in the data set on MDA-MB231.

Consider `C=C(C)COc1ccc(C(=O)C=Cc2cccc(OC)c2)c(O)c1` [Compound IX, 1-[2-hydroxy-4-(2-methylallyloxy)-phenyl]-3-(3-methoxyphenyl)-propen-1-one], for which the melting point was 97 to 100 °C. Moreover, the IC50 in data set [1] is 3.1 µM. For the same compound, the IC50 in the data set with MCF7 ADRr stood at 8.9 µM. The IC50 with MDA-MB231 came out at 5 µM.

`CC(C)=CCOc1ccc(C(=O)C=Cc2ccc(C(F)(F)F)cc2)c(O)c1` [Compound XXII, 1-(2-Hydroxy-4-(3-methylbut-2-enyloxy)-phenyl)-3-(4-trifluoromethylphenyl)-propen-1-one] displayed a melting point of 122 to 123 °C.

In turn, `C=C(C)COc1ccc(C(=O)C=Cc2ccc(Br)cc2)c(O)c1` [Compound XVIII, 1-(2-Hydroxy-4-(2-methylallyloxy)-phenyl)-3-(4-bromophenyl)-propen-1-one] returned a melting point of 121 to 122 °C.

For the compound `CC(C)=CCOc1ccc(C(=O)C=Cc2cccs2)c(O)c1` [Compound XI, 1-(2-Hydroxy-4-(3-methylbut-2-enyloxy)-phenyl)-3-(2-thienyl)-propen-1-one], the IC50 in data set [1] is 1.4 µM; with MCF7 ADRr, 3.6 µM; in the data set on MDA-MB231, 4.1 µM.

For the compound `C#CCOc1ccc(C(=O)C=Cc2ccccc2)c(O)c1` [Compound XVI, 1-(2-Hydroxy-4-(prop-2-ynyloxy)-phenyl)-3-(phenyl)-propen-1-one], the results for the IC50 (in data set [1]; with MCF7 ADRr; with MDA-MB231) were 4.4 µM, 8.4 µM and 8.9 µM, respectively.

`CC(C)=CCOc1ccc(C(=O)C=Cc2c(Cl)cccc2Cl)c(O)c1` [Compound XXI, 1-(2-Hydroxy-4-(3-methylbut-2-enyloxy)-phenyl)-3-(2,6-dichlorophenyl)-propen-1-one] had a melting point of 101 to 102 °C.

The compound `CC(C)=CCOc1ccc(C(=O)C=Cc2ccncc2)c(O)c1` [Compound I, 1-[2-Hydroxy-4-(3-methylbut-2-enyloxy)-phenyl]-3(pyridine-4-yl)-propen-1-one] yielded a melting point of 99 to 100 °C. Besides, the IC50 in data set [1] came to 1.1 µM. The IC50 with MCF7 ADRr came out at 2.8 µM. Also, the IC50 in the data set with MDA-MB231 worked out at 3.2 µM.

`CC(C)=CCOc1ccc(C(=O)C=Cc2cccnc2)c(O)c1` [Compound II, 1-[2-Hydroxy-4-(3-methylbut-2-enyloxy)-phenyl]-3(pyridine-3-yl)-propen-1-one] showed a melting point of 177 to 179 °C. For the same compound, in data set [1], the IC50 is 3.3 µM. Besides, the IC50 with MCF7 ADRr stood at 2.2 µM. The IC50 with MDA-MB231 is 3.2 µM.

Compound `CC(C)=CCOc1ccc(C(=O)C=Cc2ccc(C)cc2)c(O)c1` [Compound XXV, 1-(2-Hydroxy-4-(3-methylbut-2-enyloxy)-phenyl)-3-(4-methylphenyl)-propen-1-one] returned a melting point of 108 to 109 °C.

On to `CC(C)=CCOc1ccc(C(=O)C=Cc2c[nH]c3ccccc23)c(O)c1` [Compound V, 1-[2-hydroxy-4-(3-methylbut-2-enyloxy)-phenyl]-3-(indole-3-yl)-propen-1-one], for which the IC50 in data set [1] came to 2.8 µM; with MCF7 ADRr, 6.8 µM; in the data set with MDA-MB231, 11 µM.

`C=C(C)COc1ccc(C(=O)C=Cc2ccc(N(C)C)cc2)c(O)c1` [Compound IV, 1-[2-hydroxy-4-(2-methylallyloxy)-phenyl]-3-(4-dimethylaminophenyl)-propen-1-one] came in with a melting point of 85 to 87 °C. Further, the IC50 in data set [1] turned out to be 1.7 µM. Also, the IC50 in the data set on MCF7 ADRr amounted to 9.4 µM. In addition, in the data set on MDA-MB231, the IC50 was determined as 7.5 µM.

`C=C(C)COc1ccc(C(=O)C=Cc2ccc(OC)cc2OC)c(O)c1` [Compound XVII, 1-(2-Hydroxy-4-(2-methylallyloxy)-phenyl)-3-(2,4-dimethoxyphenyl)-propen-1-one] showed a melting point of 106 to 107 °C. Further, the IC50 in data set [1] was 5.5 µM. In addition, the IC50 in the data set with MCF7 ADRr came to 5.6 µM. For the same compound, the IC50 with MDA-MB231 was determined as 4.3 µM.

In turn, `C#CCOc1ccc(C(=O)C=Cc2cccnc2)c(O)c1` [Compound X, 1-[2-hydroxy-4-(prop-2-ynyloxy)-phenyl]-3-(pyridine-3-yl)propen-1-one] had a melting point of 115 to 117 °C. For the same compound, in data set [1], the IC50 was found to be 2.8 µM. Besides, the IC50 with MCF7 ADRr was found to be 3.7 µM. In addition, the IC50 in the data set with MDA-MB231 is 3.7 µM.

With `C#CCOc1ccc(C(=O)C=Cc2c[nH]c3ccccc23)c(O)c1` [Compound VII, 1-[2-hydroxy-4-(prop-2-ynyloxy)-phenyl]-3-(indole-3-yl)propen-1-one], the IC50 stood at 5.2 µM in data set [1], 9.4 µM in the data set on MCF7 ADRr and 7.1 µM in the data set with MDA-MB231.

The compound `C#CCOc1ccc(C(=O)C=Cc2c(OC)cc(OC)cc2OC)c(O)c1` [Compound XXIII, 1-(2-Hydroxy-4-(prop-2-ynyloxy)-phenyl)-3-(2,4,6-trimethoxyphenyl)-propen-1-one] returned a melting point of 177 to 179 °C.

In turn, `C=C(C)COc1ccc(C(=O)C=Cc2cccnc2)c(O)c1` [Compound VIII, 1-[2-Hydroxy-4-(2-methylallyloxy)-phenyl]-3-(pyridine-3-yl)-propen-1-one] yielded a melting point of 164 to 166 °C. Further, the IC50 in data set [1] is 4 µM. Also, the IC50 in the data set on MCF7 ADRr worked out at 6 µM. In the data set on MDA-MB231, the IC50 stood at 5.4 µM.

The record behind these values is patent US6423740B1, “Chalcones having antiproliferative activity” (Indena S.p.A., priority 1997, dated 2002).
